The values that follow come from patent publication US8637557B2, “Aminothiazole derivative” (Taisho Pharmaceutical Co., Ltd, priority 2009, dated 2014).

In the first assay the target is T1, human PI 3-kinase p120γ (Homo sapiens, UniProt P48736).
T1 construct: purchased Millipore Corporation
T1 sequence (P48736 whole entry): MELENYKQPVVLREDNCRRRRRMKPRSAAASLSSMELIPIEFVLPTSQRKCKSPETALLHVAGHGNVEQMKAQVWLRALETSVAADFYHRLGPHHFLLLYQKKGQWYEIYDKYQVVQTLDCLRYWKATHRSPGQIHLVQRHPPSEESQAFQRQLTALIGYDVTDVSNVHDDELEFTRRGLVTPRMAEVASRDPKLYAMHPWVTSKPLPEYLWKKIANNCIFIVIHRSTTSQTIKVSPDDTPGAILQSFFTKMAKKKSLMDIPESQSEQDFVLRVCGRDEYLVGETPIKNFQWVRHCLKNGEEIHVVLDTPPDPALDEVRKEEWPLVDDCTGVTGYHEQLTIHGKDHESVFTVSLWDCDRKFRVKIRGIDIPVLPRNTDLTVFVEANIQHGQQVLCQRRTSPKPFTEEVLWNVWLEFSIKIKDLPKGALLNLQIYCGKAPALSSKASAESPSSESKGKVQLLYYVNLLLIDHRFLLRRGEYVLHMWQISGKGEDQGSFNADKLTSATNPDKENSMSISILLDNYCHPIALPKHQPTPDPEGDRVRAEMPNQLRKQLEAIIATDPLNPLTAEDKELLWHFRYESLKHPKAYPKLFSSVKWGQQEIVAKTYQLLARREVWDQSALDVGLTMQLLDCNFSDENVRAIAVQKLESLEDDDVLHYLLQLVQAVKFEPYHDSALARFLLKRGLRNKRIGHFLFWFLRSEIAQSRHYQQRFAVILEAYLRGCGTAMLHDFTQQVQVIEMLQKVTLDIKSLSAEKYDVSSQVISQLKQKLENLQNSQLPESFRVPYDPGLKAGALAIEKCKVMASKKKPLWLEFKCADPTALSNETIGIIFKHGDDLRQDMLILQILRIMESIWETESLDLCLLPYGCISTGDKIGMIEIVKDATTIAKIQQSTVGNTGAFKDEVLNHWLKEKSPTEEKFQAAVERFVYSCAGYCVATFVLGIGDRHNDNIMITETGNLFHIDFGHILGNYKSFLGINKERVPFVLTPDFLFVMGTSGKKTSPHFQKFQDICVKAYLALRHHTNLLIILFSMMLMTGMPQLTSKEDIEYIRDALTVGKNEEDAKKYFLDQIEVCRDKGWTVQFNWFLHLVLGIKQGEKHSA
Nature of the assay: PI 3-kinase p120γ enzyme activity inhibition test. It is filed as biochemical. To be noted: ATP 10.0 μM, PIP2-PS 5.0 μM, 30° C., 2 hours; read-out: IC50 value. Here is the method:
Using human PI 3-kinase p120γ (manufactured by Millipore Corporation) and a mixed micellized product (hereinafter abbreviated as PIP2-PS) of the substrate thereof, L-a-Phosphatidyl-D-myo-inositol-4,5-bisphosphate (product of Calbiochem, hereinafter abbreviated as PIP2), and L-a-Phosphatidyl-L-Serine (manufactured by Sigma, hereinafter abbreviated as PS), the compound of the present invention was examined for the inhibitory action on PI3 Kinase p120γ enzyme activity (Km=8.9 μM for ATP, Km=4.0 μM for PIP2-PS).
PIP2-PS was prepared by mixing 500 μM of PIP2 and 2.5 nM of PS and sonicating the mixture for 40 minutes while ice cooling to cause micellization. ATP (final concentration 10.0 μM), [γ-^33P] ATP (final concentration 10 μCi/ml), PIP2-PS (final concentration 5.0 μM) and DMSO solutions of the test compound in different concentrations (compound final concentration 1.0×10^−5 to 2.4×10^−12 M, DMSO final concentration 0.1%) were added to PI 3-kinase p120γ, stirred and reacted at 30° C. for 2 hours. Using Phospholipid-Coated FlashPlate Microplates, 96-Well and Phospholipid FlashPlate Coating Buffer (both manufactured by PerkinElmer Co., Ltd.), PIP2-PS and phosphorylated PIP2-PS were allowed to be adsorbed to the well wall of the plate and collected. The well was washed twice with PBS (Phosphate-Buffered Saline) and dried. The radioactivity was measured using Top Count NXT (manufactured by PerkinElmer Co., Ltd.), whereby the phosphorylated amount (a) of PIP2-PS at the time of compound addition was calculated.
The same procedure was carried out in the absence of the test compound and the phosphorylated amount (b) of PIP2-PS was calculated. Further, the same procedure was carried out in the absence of both of the substrate and the test compound, and the PIP2-PS phosphorylated amount (c) of the background was calculated.
The PI3 Kinase p120γ enzyme activity suppression rate of the compound was calculated by the following formula. Suppression rate (%)=[1−(a−c)/(b−c)]×100
More specifically, using the suppression rate by the test compound of different concentrations, the IC50 value was calculated according to the dose-dependent inhibition curve analyzed by a data analysis software Origin (Lightstone Corp.) and used as the inhibitory activity index.
What is called IC50 is the concentration that inhibits the measured activity by half. As for `CC(=O)Nc1nc(C)c(-c2nc(CCC(C)C)no2)s1` [Example 82], the half-inhibitory concentration (IC50) was found to be 88 nM.

The assay is the same for the next values; noted with them: ATP 10.0 μM, PIP2-PS 5.0 μM, 30° C., 2 hours; read-out: PI3Kγ (IC50 value class).
`COC(=O)CCc1noc(-c2sc(NC(C)=O)nc2C)n1` [Example 71]: the IC50 is 100 to 500 nM.

In the case of `CC(=O)Nc1nc(C)c(-c2nc(C(=O)N3CCOCC3)no2)s1` [Example 72, N-{4-methyl-5-[3-(morpholin-4-ylcarbonyl)-1,2,4-oxadiazol-5-yl]-1,3-thiazol-2-yl}acetamide], the half-maximal inhibitory concentration (IC50) was 500 to 10000 nM.

For the compound `CC(=O)Nc1nc(C)c(-c2nc(C(C)(C)CCO)no2)s1` [Example 73], the IC50 is less than 100 nM.

Take `CC(=O)Nc1nc(C)c(-c2nc(C(C)NC(=O)OC(C)(C)C)no2)s1` (stereo not shown) [Example 74]: the IC50 fell in the range of 500 to 10000 nM.

`CC(=O)Nc1nc(C)c(-c2nc(CN3CCOCC3)no2)s1` [Example 75]: the IC50 was in the range of 500 to 10000 nM.

As for `CC(=O)Nc1nc(C)c(-c2nc(CC(C)(C)COS(C)(=O)=O)no2)s1` [Example 76], the concentration for half-maximal inhibition (IC50) was in the range of 100 to 500 nM.

Regarding `CC(=O)Nc1nc(C)c(-c2nc(C(C)NC(C)=O)no2)s1` (stereo not shown) [Example 77], the concentration for half-maximal inhibition (IC50) is 500 to 10000 nM.

`CNC(=O)c1noc(-c2sc(NC(C)=O)nc2C)n1` [Example 78]: the IC50 was in the range of 100 to 500 nM.

Regarding `CNCc1noc(-c2sc(NC(C)=O)nc2C)n1` [Example 79], the 50% inhibitory concentration (IC50) fell in the range of 500 to 10000 nM.

`CC(=O)Nc1nc(C)c(-c2nc(CC3CC3)no2)s1` [Example 80]: the IC50 is less than 100 nM.

In the case of `CC(=O)Nc1nc(C)c(-c2nc(C(C)NS(C)(=O)=O)no2)s1` (stereo not shown) [Example 81], the 50% inhibitory concentration (IC50) fell in the range of 500 to 10000 nM.

As for `CC(=O)Nc1nc(C)c(-c2nc(CCC(C)C)no2)s1` [Example 82], the 50% inhibitory concentration (IC50) is less than 100 nM.

`CC(=O)Nc1nc(C)c(-c2nc(C3CC3)no2)s1` [Example 83]: the half-maximal inhibitory concentration (IC50) is less than 100 nM.

Consider `COC(C)(C)Cc1noc(-c2sc(NC(C)=O)nc2C)n1` [Example 84, N-{5-[3-(2-methoxy-2-methylpropyl)-1,2,4-oxadiazol-5-yl]-4-methyl-1,3-thiazol-2-yl}acetamide], for which the IC50 was in the range of 100 to 500 nM.

With `CC(=O)Nc1nc(C)c(-c2nc(CC(C)(C)C(C)O)no2)s1` (stereo not shown) [Example 85], the IC50 is less than 100 nM.

With `CC(=O)Nc1nc(C)c(-c2nc(CC(C)(C)C(C)=O)no2)s1` [Example 86], the IC50 was less than 100 nM.

With `CC(=O)Nc1nc(C)c(-c2nc(N3CCOCC3)no2)s1` [Example 87, N-{4-methyl-5-[3-(morpholin-4-yl)-1,2,4-oxadiazol-5-yl]-1,3-thiazol-2-yl}acetamide], the half-inhibitory concentration (IC50) was in the range of 100 to 500 nM.

For `CC(=O)Nc1nc(C)c(-c2nc(C(=O)C(C)(C)C)no2)s1` [Example 88], the IC50 was in the range of 100 to 500 nM.

In the case of `CC(=O)Nc1nc(C)c(-c2nc(CCN3CCCC3=O)no2)s1` [Example 89], the IC50 lay within 500 to 10000 nM.

Regarding `CC(=O)Nc1nc(C)c(-c2nc(C(=O)N3CC(O)C3)no2)s1` [Example 90], the IC50 fell in the range of 100 to 500 nM.

For `CC(=O)Nc1nc(C)c(-c2nc(C(=O)NCC(C)O)no2)s1` (stereo not shown) [Example 91], the IC50 fell in the range of 100 to 500 nM.

On to `CC(=O)Nc1nc(C)c(-c2nc([C@H]3CCCO3)no2)s1` [Example 92], for which the IC50 is 100 to 500 nM.

In the case of `CC(=O)Nc1nc(C)c(-c2nc(N3CCCC(O)C3)no2)s1` (stereo not shown) [Example 93], the IC50 was less than 100 nM.

Turning to `CC(=O)Nc1nc(C)c(-c2nc(CC(C)(C)S(=O)(=O)NC(C)(C)C)no2)s1` [Example 94], the IC50 lay within 100 to 500 nM.

For the compound `CC(=O)Nc1nc(C)c(-c2nc(CC(C)(C)CF)no2)s1` [Example 95], the 50% inhibitory concentration (IC50) was less than 100 nM.

Take `CC(=O)Nc1nc(C)c(-c2nc(C(=O)NC3COC3)no2)s1` [Example 96]: the IC50 was 100 to 500 nM.

As to `CCC(O)C(C)(C)Cc1noc(-c2sc(NC(C)=O)nc2C)n1` (stereo not shown) [Example 97], the concentration for half-maximal inhibition (IC50) is less than 100 nM.

Take `CC(=O)Nc1nc(C)c(-c2nc(/C=C(\C)CO)no2)s1` [Example 98]: the concentration for half-maximal inhibition (IC50) was less than 100 nM.

Regarding `CC(=O)Nc1nc(C)c(-c2nc(Cn3cccn3)no2)s1` [Example 99], the IC50 lay in the range of 500 to 10000 nM.

Take `CC(=O)Nc1nc(C)c(-c2nc(CC(C)(C)C(O)c3ccccc3)no2)s1` (stereo not shown) [Example 100]: the IC50 lay within 100 to 500 nM.

As for `CC(=O)Nc1nc(C)c(-c2nc(C3CC3(C)C)no2)s1` (stereo not shown) [Example 101], the half-inhibitory concentration (IC50) is less than 100 nM.

`CC(=O)Nc1nc(C)c(-c2nc(N3CC[C@H](O)C3)no2)s1` [Example 102]: the IC50 lay in the range of 100 to 500 nM.

As for `CC(=O)Nc1nc(C)c(-c2nc(N3CC[C@@H](O)C3)no2)s1` [Example 103], the 50% inhibitory concentration (IC50) fell in the range of 100 to 500 nM.

For the compound `CCOC(=O)C(C)(C)Cc1noc(-c2sc(NC(C)=O)nc2C)n1` [Example 105], the IC50 was 100 to 500 nM.

With `CC(=O)Nc1nc(C)c(-c2nc(CC(C)(C)C(C)(C)O)no2)s1` [Example 106], the IC50 was less than 100 nM.

Turning to `CC(=O)Nc1nc(C)c(-c2nc(CC(C)(C)S(N)(=O)=O)no2)s1` [Example 107], the half-inhibitory concentration (IC50) lay within 100 to 500 nM.

For `CC(=O)Nc1nc(C)c(-c2nc(CC(C)(C)C(=O)O)no2)s1` [Example 108], the IC50 is less than 100 nM.

Regarding `CC(=O)Nc1nc(C)c(-c2nc(CC(C)(C)C(N)=O)no2)s1` [Example 111], the half-maximal inhibitory concentration (IC50) is less than 100 nM.

For the compound `CC(=O)Nc1nc(C)c(-c2nc(C3CCCOC3)no2)s1` (stereo not shown) [Example 112], the IC50 is less than 100 nM.

Turning to `CC(=O)Nc1nc(C)c(-c2nc(-c3cc[nH]c(=O)c3)no2)s1` [Example 113], the IC50 fell in the range of 100 to 500 nM.

For the compound `Cc1nc(N)sc1-c1nc(C(C)(C)C)no1` [Example 114], the half-inhibitory concentration (IC50) is less than 100 nM.

`Cc1nc(NC(=O)C(C)C)sc1-c1nc(-c2cccnc2)no1` [Example 115, 2-Methyl-N-{4-methyl-5-[3-(pyridin-3-yl)-1,2,4-oxadiazol-5-yl]-1,3-thiazol-2-yl}propanamide]: the concentration for half-maximal inhibition (IC50) is 100 to 500 nM.

On to `COCC(=O)Nc1nc(C)c(-c2nc(-c3cccnc3)no2)s1` [Example 116], for which the IC50 is less than 100 nM.

In the case of `Cc1nc(NC(=O)NCCC(=O)OC(C)(C)C)sc1-c1nc(-c2cccnc2)no1` [Example 117, Tert-butyl N-({4-methyl-5-[3-(pyridin-3-yl)-1,2,4-oxadiazol-5-yl]-1,3-thiazol-2-yl}carbamoyl)-β-alaninate], the 50% inhibitory concentration (IC50) was less than 100 nM.

On to `CCOC(=O)CCCC(=O)Nc1nc(C)c(-c2nc(-c3cccnc3)no2)s1` [Example 118], for which the IC50 was less than 100 nM.

As to `CCOC(=O)CCNC(=O)Nc1nc(C)c(-c2nc(-c3cccnc3)no2)s1` [Example 119], the half-maximal inhibitory concentration (IC50) was less than 100 nM.

On to `Cc1nc(NC(=O)NCCO)sc1-c1nc(-c2cccnc2)no1` [Example 120], for which the IC50 is less than 100 nM.

Regarding `Cc1nc(NC(=O)NCCN2CCOCC2)sc1-c1nc(-c2cccnc2)no1` [Example 121], the IC50 was less than 100 nM.

Take `COCCNC(=O)Nc1nc(C)c(-c2nc(-c3cccnc3)no2)s1` [Example 122]: the IC50 was less than 100 nM.

As for `Cc1nc(NC(N)=O)sc1-c1nc(-c2cccnc2)no1` [Example 124], the 50% inhibitory concentration (IC50) is less than 100 nM.

For the compound `Cc1nc(NC(=O)NCCCC(=O)OC(C)(C)C)sc1-c1nc(-c2cccnc2)no1` [Example 125], the 50% inhibitory concentration (IC50) is less than 100 nM.

As for `Cc1nc(NC(=O)NCC(=O)OC(C)(C)C)sc1-c1nc(-c2cccnc2)no1` [Example 126], the IC50 is less than 100 nM.

`Cc1nc(NC(=O)NCCCN(C)C)sc1-c1nc(-c2cccnc2)no1` [Example 127]: the 50% inhibitory concentration (IC50) is less than 100 nM.

Take `COCCCC(=O)Nc1nc(C)c(-c2nc(-c3cccnc3)no2)s1` [Example 128]: the concentration for half-maximal inhibition (IC50) was less than 100 nM.
